Measured values taken from paper PMC2248166, “Quantitative peptide binding motifs for 19 human and mouse MHC class I molecules derived using positional scanning combinatorial peptide libraries” (Immunome Research, 2008).

Key:
Format in all cases: binding
[1] = biological target: HLA B*0801 (Homo sapiens, UniProt P01889, A93T/A95T/D138N/E176V/E187T/K202T/Q94N/R180D/S35A/V36M/Y33D/Y91F); assay: biochemical
[2] = biological target: H-2 K^d (Mus musculus, UniProt P01902)
[3] = biological target: H-2 K^k (Mus musculus, UniProt P04223)
Sequence of H-2 K^k (P01887 21-119): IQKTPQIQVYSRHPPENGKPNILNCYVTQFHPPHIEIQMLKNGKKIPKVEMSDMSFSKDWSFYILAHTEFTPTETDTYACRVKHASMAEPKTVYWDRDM
Sequence of H-2 K^k (P04223 22-369): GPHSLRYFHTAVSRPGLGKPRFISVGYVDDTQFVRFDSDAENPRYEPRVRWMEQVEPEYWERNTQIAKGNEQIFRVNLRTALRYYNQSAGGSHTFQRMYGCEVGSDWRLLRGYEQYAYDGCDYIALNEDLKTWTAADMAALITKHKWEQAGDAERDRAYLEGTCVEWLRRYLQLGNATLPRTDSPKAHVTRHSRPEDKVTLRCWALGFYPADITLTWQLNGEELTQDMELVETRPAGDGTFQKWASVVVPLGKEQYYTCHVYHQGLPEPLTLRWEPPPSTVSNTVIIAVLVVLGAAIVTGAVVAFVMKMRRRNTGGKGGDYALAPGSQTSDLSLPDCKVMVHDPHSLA

[4] = biological target: HLA B*5401 (Homo sapiens, UniProt P01889, A329T/C349S/D138N/D201E/E176V/E187T/E204Q/E69G/I76V/K202T/L119W/R155S/R180L/S121T/S35A/S48A/V127L/V306I/V36M/Y140L)
[5] = biological target: HLA B*5801 (Homo sapiens, UniProt P01889, A329T/C349S/D201E/D98Y/E176V/E187L/E204Q/E69T/G107R/I218V/I90N/K202T/L105A/L119I/N104I/N87E/Q89R/Q94S/R106L/R155S/R180L/R86G/S101N/S121R/S35A/S48A/T118I/V127L/V306I/V36M/Y140S/Y91M)
[6] = biological target: HLA A*3001 (Homo sapiens, UniProt P04439, D140H/D185E/E176W/F33S/G80R/H175R/K168Q/R138E/R41S); assay: biochemical
[7] = biological target: HLA B*5802 (Homo sapiens, UniProt P01889, A329T/C349S/D201E/D98Y/E176V/E187L/E204Q/E69T/G107R/I218V/I90N/K202T/L105A/N104I/N87E/Q89R/Q94S/R106L/R155S/R180L/R86G/S101N/S121W/S35A/S48A/V127L/V306I/V36M/Y140S/Y91M)
[8] = biological target: HLA B*3501 (Homo sapiens, UniProt P01889, A329T/A93T/A95T/C349S/D201E/D98Y/E176V/E187L/E204Q/E69T/I218V/K202T/L119I/Q94N/R155S/R180L/S121R/S35A/S48A/T118I/V127L/V306I/V36M/Y140S/Y91F)
[9] = biological target: H-2 D^d (Mus musculus, UniProt P01900)
Sequence of H-2 D^d (P01900 whole entry, looked up): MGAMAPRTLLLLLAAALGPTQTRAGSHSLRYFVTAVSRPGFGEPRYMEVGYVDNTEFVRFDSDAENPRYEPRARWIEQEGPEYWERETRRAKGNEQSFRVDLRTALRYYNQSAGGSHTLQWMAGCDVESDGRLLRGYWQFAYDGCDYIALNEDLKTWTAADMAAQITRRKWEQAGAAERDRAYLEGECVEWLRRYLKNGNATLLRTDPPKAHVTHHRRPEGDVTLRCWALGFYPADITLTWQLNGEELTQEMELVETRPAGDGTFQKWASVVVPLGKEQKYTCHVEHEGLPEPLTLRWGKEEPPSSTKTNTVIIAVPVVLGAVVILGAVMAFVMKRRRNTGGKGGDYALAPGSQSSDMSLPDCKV

[10] = biological target: HLA A*3201 (Homo sapiens, UniProt P04439, A270S/D101S/D185E/E176V/E277Q/F133L/G103R/G107R/G231S/H175R/I121M/I218V/I322F/K168Q/L105A/L300P/L318F/M331R/P208A/P217A/Q94H/R106L/R138Q/S129P/T104I/T323A/T345S/V100E/V321M/V358M); assay: biochemical
[11] = biological target: HLA B*5301 (Homo sapiens, UniProt P01889, A329T/A93T/A95T/C349S/D201E/D98Y/E176V/E187L/E204Q/E69T/G107R/I218V/K202T/L105A/L119I/N104I/Q94N/R106L/R155S/R180L/S101N/S121R/S35A/S48A/T118I/V127L/V306I/V36M/Y140S/Y91F)
[12] = biological target: HLA B*1503 (Homo sapiens, UniProt P01889, A329T/A93T/A95T/C349S/D201E/D98Y/E187L/E204Q/K202T/N87E/Q94N/R155S/R180L/S121R/S35A/V306I/V36M/Y140S/Y91S); assay: biochemical
[13] = biological target: H-2 D^b (Mus musculus, UniProt P01899)
Sequence of H-2 D^b (P01887 21-119): as the sequence (P01887 21-119) above
Sequence of H-2 D^b (P01899 25-362): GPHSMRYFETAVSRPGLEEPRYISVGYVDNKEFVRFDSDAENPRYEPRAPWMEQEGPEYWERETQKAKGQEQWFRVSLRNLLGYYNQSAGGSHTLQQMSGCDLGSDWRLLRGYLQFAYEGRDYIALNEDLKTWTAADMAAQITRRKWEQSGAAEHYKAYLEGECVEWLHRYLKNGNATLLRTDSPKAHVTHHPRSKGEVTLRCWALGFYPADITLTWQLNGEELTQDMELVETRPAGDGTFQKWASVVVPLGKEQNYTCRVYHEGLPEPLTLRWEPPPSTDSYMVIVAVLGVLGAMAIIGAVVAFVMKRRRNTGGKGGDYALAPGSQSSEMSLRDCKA

[14] = biological target: HLA B*5101 (Homo sapiens, UniProt P01889, A329T/A93T/A95T/C349S/D138N/D201E/D98Y/E187L/E204Q/E69T/G107R/I218V/K202T/L105A/L119W/N104I/Q94N/R106L/R155S/R180L/S101N/S121T/S35A/S48A/V306I/V36M/Y195H/Y91F)
[15] = biological target: HLA B*1501 (Homo sapiens, UniProt P01889, A329T/A93T/A95T/C349S/D201E/D98Y/E187L/E204Q/E69M/E70A/K202T/N87E/Q94N/R155S/R180W/S121R/S35A/S48A/V306I/V36M/Y140S/Y91S); assay: biochemical
[16] = biological target: HLA A*6802 (Homo sapiens, UniProt P04439, A269V/D140Y/D185E/E176V/E277Q/E87N/F33Y/G231S/I121R/I166T/I218V/L180W/L300P/L318F/N151K/P208A/P217A/Q86R/R138H/R169H/S129P/T345S/V36M)

Sequence of H-2 K^d (P01887 21-119): as the sequence (P01887 21-119) above
Sequence of H-2 K^d (P01902 22-368): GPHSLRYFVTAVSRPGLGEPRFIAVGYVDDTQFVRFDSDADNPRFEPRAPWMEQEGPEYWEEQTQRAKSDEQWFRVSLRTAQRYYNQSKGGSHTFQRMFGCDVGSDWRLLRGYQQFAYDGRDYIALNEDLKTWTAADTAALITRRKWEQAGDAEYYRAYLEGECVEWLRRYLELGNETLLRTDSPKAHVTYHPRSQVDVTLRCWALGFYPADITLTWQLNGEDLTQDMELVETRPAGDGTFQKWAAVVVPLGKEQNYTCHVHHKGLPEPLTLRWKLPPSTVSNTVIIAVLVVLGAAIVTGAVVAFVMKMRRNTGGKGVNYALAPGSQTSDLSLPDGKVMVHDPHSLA

Sequence	Normalized average relative binding affinity(ARB) [1]	Normalized average relative binding affinity(ARB) [2]	Normalized average relative binding affinity(ARB) [3]	Normalized average relative binding affinity(ARB) [4]	Normalized average relative binding affinity(ARB) [5]	Normalized average relative binding affinity(ARB) [6]	Normalized average relative binding affinity(ARB) [7]	Normalized average relative binding affinity(ARB) [8]	Normalized average relative binding affinity(ARB) [9]	Normalized average relative binding affinity(ARB) [10]	Normalized average relative binding affinity(ARB) [11]	Normalized average relative binding affinity(ARB) [12]	Normalized average relative binding affinity(ARB) [13]	Normalized average relative binding affinity(ARB) [14]	Normalized average relative binding affinity(ARB) [15]	Normalized average relative binding affinity(ARB) [16]
XXXNXXXXX [3064.0072]	0.48	0.24	0.22	0.20	0.46	0.31	0.55	0.079	0.40	0.59	0.27	0.76	0.18	0.42	0.46	0.27
XXXPXXXXX [3064.0073]	0.34	0.48	0.41	0.13	1.0	0.59	0.50	0.11	0.15	0.095	0.023	0.67	0.15	0.55	0.22	0.37
XXXQXXXXX [3064.0074]	0.90	0.42	0.63	0.093	0.46	0.65	0.31	0.088	0.49	0.32	0.26	0.83	0.61	0.57	0.96	0.18
XXXRXXXXX [3064.0075]	0.86	0.20	0.34	0.069	0.67	0.52	0.96	0.059	0.62	0.22	0.11	0.50	0.63	0.40	0.28	0.057
XXXSXXXXX [3064.0076]	0.48	0.28	0.28	0.14	0.74	0.76	1.0	0.090	0.58	0.26	0.44	0.78	0.83	0.92	1.0	1.0
XXXTXXXXX [3064.0077]	0.52	0.21	0.19	0.61	0.27	0.44	0.74	0.54	0.66	0.31	0.25	0.41	0.58	0.77	0.39	0.20
XXXVXXXXX [3064.0078]	0.47	0.19	0.49	1.00	0.33	0.22	0.53	0.17	0.48	0.27	0.70	0.64	0.87	0.67	0.52	0.15
XXXWXXXXX [3064.0079]	0.68	0.040	1.0	1.0	0.33	0.45	0.72	0.32	0.54	0.29	1.0	0.63	0.56	0.82	0.39	0.56
